From ChEMBL document CHEMBL5370643, “Discovery of MK-1468: A Potent, Kinome-Selective, Brain-Penetrant Amidoisoquinoline LRRK2 Inhibitor for the Potential Treatment of Parkinson's Disease” (J Med Chem, 2023)

What was measured:
[1] = Total clearance in Wistar-Han rat at 0.1 mg/kg, iv administered as cassette dose by LC-MS/MS analysis; assay type: ADME, organism-based; details: in vivo
rat Mdrl1 P-gp = assay: Efflux ratio of apparent permeability across basolateral to apical over apical to basolateral side in MDCK cells transfected with rat Mdrl1 P-gp incubated for 3 hrs by LC-MS/MS analysis; details: dog, MDCK-MDR1
[2] = Intrinsic clearance in Wistar-Han rat at 0.1 mg/kg, iv administered as cassette dose by LC-MS/MS analysis; assay type: ADME, organism-based; details: in vivo
[3] = target: Leucine-rich repeat serine/threonine-protein kinase 2 (Homo sapiens, UniProt Q5S007, G2019S); assay: Inhibition of recombinant N-terminal GST-fused LRRK2 […] mutant (970 to 2527 residues) (unknown origin) using LRRKtide peptide as substrate assessed as inhibition of substrate phosphorylation preincubated with compound for 15 mins followed by substrate addition and measured after 90 mins in presence of ATP by TR-FRET assay
Sequence of Leucine-rich repeat serine/threonine-protein kinase 2 (Q5S007 whole entry G2019S, the tested form may be a part): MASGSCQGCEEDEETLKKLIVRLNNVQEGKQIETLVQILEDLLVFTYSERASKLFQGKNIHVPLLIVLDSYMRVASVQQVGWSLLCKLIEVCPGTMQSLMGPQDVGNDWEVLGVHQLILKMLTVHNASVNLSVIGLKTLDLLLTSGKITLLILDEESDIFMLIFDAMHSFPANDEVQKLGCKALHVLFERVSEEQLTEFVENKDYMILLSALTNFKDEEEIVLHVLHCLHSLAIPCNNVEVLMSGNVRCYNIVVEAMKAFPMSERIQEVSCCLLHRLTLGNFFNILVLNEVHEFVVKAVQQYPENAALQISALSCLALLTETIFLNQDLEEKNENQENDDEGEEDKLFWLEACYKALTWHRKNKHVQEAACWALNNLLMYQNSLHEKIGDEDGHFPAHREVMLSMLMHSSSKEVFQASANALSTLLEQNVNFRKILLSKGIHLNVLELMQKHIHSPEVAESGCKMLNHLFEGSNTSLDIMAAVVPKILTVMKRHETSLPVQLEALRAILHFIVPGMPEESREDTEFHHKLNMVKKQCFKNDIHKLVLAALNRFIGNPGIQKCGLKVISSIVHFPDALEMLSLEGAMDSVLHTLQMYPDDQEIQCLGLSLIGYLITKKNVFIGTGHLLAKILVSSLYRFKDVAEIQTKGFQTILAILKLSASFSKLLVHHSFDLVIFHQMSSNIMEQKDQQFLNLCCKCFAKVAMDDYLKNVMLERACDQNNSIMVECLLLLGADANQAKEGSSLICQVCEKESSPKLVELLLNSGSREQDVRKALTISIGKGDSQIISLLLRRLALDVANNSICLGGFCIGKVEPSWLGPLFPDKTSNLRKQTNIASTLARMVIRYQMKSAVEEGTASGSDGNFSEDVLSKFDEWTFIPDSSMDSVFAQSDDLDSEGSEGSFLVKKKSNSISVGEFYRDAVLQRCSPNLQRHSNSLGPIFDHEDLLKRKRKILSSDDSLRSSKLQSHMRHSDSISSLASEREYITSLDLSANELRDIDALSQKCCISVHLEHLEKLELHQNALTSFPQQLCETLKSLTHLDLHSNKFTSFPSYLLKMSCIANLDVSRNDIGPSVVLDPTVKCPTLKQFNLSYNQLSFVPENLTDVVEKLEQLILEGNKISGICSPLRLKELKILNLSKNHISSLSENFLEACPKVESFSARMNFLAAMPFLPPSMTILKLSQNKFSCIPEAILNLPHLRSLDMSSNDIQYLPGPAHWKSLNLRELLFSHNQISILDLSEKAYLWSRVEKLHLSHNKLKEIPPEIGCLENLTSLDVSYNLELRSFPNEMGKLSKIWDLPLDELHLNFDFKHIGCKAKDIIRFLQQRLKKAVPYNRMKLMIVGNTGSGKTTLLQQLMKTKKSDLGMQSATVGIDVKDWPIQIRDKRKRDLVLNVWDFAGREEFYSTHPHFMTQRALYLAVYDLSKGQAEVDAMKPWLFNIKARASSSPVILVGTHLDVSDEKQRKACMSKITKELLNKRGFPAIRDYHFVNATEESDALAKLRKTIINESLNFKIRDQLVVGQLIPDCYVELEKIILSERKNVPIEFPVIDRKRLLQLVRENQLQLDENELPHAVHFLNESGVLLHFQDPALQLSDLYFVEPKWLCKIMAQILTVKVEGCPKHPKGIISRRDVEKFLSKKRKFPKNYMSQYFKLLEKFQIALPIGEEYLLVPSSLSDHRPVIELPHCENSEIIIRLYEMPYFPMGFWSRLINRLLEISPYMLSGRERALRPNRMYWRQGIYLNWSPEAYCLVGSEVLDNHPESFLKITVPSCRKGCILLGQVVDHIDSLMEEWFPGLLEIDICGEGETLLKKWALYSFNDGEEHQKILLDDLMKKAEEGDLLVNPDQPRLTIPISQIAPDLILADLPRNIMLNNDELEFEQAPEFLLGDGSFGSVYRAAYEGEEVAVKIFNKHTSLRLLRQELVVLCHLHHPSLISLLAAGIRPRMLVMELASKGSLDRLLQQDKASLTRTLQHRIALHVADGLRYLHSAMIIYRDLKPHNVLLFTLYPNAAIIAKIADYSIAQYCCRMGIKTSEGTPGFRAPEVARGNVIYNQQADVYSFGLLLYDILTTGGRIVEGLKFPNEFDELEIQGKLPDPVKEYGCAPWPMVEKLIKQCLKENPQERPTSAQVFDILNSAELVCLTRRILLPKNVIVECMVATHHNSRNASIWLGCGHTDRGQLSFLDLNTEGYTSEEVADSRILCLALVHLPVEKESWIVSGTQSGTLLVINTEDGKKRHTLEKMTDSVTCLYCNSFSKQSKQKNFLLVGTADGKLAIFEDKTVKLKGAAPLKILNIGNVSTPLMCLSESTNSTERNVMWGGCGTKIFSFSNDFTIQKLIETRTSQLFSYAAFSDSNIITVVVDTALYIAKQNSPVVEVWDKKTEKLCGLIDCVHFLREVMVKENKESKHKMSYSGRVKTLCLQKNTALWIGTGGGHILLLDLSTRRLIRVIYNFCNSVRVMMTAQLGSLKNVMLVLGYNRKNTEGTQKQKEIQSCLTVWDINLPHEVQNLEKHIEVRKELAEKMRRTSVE

[4] = MRT in Wistar-Han rat at 0.1 mg/kg, iv administered as cassette dose by LC-MS/MS analysis; assay type: ADME, organism-based; details: in vivo
rat Mdr1a P-gp = assay: Apparent permeability across apical to basolateral side in LLC-PK1 cells transfected with rat Mdr1a P-gp incubated for 3 hrs by LC-MS/MS analysis; details: pig
[5] = target: Voltage-gated inwardly rectifying potassium channel KCNH2 (Homo sapiens, UniProt Q12809); assay: Inhibition of hERG expressed in CHO cells by QPatch voltage clamp assay
Sequence of Voltage-gated inwardly rectifying potassium channel KCNH2 (Q12809 whole entry): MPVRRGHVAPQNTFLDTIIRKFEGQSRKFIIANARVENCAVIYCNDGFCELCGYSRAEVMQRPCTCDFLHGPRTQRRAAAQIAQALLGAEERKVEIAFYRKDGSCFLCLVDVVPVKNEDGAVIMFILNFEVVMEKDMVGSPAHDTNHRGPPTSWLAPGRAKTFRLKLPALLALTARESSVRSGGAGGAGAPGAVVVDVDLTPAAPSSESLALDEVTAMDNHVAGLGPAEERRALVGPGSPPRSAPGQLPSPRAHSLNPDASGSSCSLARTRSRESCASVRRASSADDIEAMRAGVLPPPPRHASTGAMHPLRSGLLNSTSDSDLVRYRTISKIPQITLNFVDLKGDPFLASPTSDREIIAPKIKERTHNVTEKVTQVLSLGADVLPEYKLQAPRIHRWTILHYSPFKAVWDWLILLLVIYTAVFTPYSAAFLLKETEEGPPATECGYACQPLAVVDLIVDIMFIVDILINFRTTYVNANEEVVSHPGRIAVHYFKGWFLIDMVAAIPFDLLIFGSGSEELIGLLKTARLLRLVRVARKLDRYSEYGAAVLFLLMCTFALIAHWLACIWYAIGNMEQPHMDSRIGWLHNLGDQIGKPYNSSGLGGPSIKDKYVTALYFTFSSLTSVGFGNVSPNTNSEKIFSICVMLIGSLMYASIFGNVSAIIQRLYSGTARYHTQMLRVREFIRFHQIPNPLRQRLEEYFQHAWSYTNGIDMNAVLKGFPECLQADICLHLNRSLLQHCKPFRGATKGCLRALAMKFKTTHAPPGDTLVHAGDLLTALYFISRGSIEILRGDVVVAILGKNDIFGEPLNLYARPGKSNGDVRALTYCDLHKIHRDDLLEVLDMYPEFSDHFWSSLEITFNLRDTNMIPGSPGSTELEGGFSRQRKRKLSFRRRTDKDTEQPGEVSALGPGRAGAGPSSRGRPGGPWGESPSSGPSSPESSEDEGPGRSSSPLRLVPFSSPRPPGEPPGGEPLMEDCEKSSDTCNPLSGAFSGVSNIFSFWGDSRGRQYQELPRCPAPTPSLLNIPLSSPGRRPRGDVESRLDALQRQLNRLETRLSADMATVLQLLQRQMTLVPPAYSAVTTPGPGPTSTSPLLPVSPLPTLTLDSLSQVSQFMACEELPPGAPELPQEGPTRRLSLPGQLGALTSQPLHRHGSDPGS

[6] = target: Leucine-rich repeat serine/threonine-protein kinase 2 (Homo sapiens) (UniProt Q5S007); assay: Inhibition of LRRK2 in human PBMC using LRRKtide peptide as substrate assessed as Ser935 dephosphorylation preincubated with compound for 15 mins followed by substrate addition and measured after 90 mins in presence of ATP by TR-FRET assay; assay type: cell-based; details: time 105.0 min
Sequence of Leucine-rich repeat serine/threonine-protein kinase 2 (Homo sapiens) (Q5S007 whole entry): as the sequence (Q5S007 whole entry G2019S, the tested form may be a part) above, with S2019G counted along it

[7] = Unbound brain-to-plasma concentration ratio in iv dosed Wistar-Han rat administered as cassette dose by LC-MS/MS analysis; assay type: ADME, organism-based; details: read-out: K(p,uu,brain)
[8] = target: T1, Serine/threonine-protein kinase BRSK1 (Homo sapiens, UniProt Q8TDC3); assay: Inhibition of BRSK1 (unknown origin)
T1 sequence (Q8TDC3 whole entry): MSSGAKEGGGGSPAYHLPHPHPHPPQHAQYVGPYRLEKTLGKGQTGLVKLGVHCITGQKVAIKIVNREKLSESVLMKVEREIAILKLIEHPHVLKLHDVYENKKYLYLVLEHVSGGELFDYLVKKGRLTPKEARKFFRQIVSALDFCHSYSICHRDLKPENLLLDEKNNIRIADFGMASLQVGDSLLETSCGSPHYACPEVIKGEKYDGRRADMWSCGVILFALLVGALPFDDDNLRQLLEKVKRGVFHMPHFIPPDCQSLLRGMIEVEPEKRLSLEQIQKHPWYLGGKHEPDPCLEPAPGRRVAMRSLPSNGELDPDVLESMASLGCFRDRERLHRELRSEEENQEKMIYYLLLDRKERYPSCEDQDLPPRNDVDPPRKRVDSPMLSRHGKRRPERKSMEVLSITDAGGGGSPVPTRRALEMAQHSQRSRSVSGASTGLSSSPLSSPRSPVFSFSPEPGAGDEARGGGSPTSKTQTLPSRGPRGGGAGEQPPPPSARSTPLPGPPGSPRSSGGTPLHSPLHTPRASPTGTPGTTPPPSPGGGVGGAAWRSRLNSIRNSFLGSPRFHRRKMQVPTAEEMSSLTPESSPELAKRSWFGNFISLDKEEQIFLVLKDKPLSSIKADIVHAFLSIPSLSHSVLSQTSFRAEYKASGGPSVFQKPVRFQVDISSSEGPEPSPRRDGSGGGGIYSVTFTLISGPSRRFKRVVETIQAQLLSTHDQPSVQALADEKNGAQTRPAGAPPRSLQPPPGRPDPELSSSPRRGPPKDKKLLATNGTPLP

[9] = Total clearance in Beagle dog at 0.05 mg/kg, iv administered as cassette dose by LC-MS/MS analysis; assay type: ADME, organism-based, Canis lupus familiaris; details: in vivo
[10] = Intrinsic clearance in Beagle dog at 0.05 mg/kg, iv administered as cassette dose by LC-MS/MS analysis; assay type: ADME, organism-based, Canis lupus familiaris; details: in vivo
[11] = MRT in Beagle dog at 0.05 mg/kg, iv administered as cassette dose by LC-MS/MS analysis; assay type: ADME, organism-based, Canis lupus familiaris; details: in vivo
[12] = Lipophilicity, logD of compound at pH 7 by HT-HPLC/DAD analysis; assay type: physicochemical; details: buffer
[13] = Mutagenicity in Salmonella typhimurium TA1535 at 30 to 5000 ug/plate incubated for 48 hrs in absence of Wistar-Han rat S9 fraction by Ames test; assay type: toxicity; details: salmonella enterica subsp. enterica serovar typhimurium, s9, 48 h
[14] = Mutagenicity in Salmonella typhimurium TA98 at 30 to 5000 ug/plate incubated for 48 hrs in presence of Wistar-Han rat S9 fraction by Ames test; assay type: toxicity, subcellular; details: salmonella enterica subsp. enterica serovar typhimurium, s9, 48 h
[15] = Mutagenicity in Salmonella typhimurium TA100 at 30 to 5000 ug/plate incubated for 48 hrs in absence of Wistar-Han rat S9 fraction by Ames test; assay type: toxicity; details: salmonella enterica subsp. enterica serovar typhimurium, s9, 48 h
[16] = Mutagenicity in Salmonella typhimurium TA1535 at 30 to 5000 ug/plate incubated for 48 hrs in presence of Wistar-Han rat S9 fraction by Ames test; assay type: toxicity, subcellular; details: salmonella enterica subsp. enterica serovar typhimurium, s9, 48 h
[17] = Mutagenicity in Salmonella typhimurium TA100 at 30 to 5000 ug/plate incubated for 48 hrs in presence of Wistar-Han rat S9 fraction by Ames test; assay type: toxicity, subcellular; details: salmonella enterica subsp. enterica serovar typhimurium, s9, 48 h
[18] = Mutagenicity in Salmonella typhimurium TA98 at 30 to 5000 ug/plate incubated for 48 hrs in absence of Wistar-Han rat S9 fraction by Ames test; assay type: toxicity; details: salmonella enterica subsp. enterica serovar typhimurium, s9, 48 h
[19] = Intrinsic clearance in Wistar-Han rat at 2 mg/kg, iv measured after 24 hrs by LC-MS/MS analysis; assay type: ADME, organism-based; details: in vivo
[20] = Total clearance in Wistar-Han rat at 2 mg/kg, iv measured after 24 hrs by LC-MS/MS analysis; assay type: ADME, organism-based; details: in vivo
[21] = Oral bioavailability in Wistar-Han rat at 10 mg/kg measured after 24 hrs by LC-MS/MS analysis; assay type: ADME, organism-based; details: in vivo
[22] = MRT in Wistar-Han rat at 2 mg/kg, iv measured after 24 hrs by LC-MS/MS analysis; assay type: ADME, organism-based; details: in vivo
[23] = Drug metabolism in dog assessed as oxidative metabolism of piperazine-THF alcohol lysine region fragment by MetID analysis; assay type: ADME, Canis lupus familiaris
[24] = Oral bioavailability in Wistar-Han rat at 5 mg/kg measured after 24 hrs by LC-MS/MS analysis; assay type: ADME, organism-based; details: in vivo
[25] = Drug metabolism in dog assessed as amide hydrolysis mediated metabolite formation by MetID analysis; assay type: ADME, Canis lupus familiaris
[26] = Drug metabolism in rat assessed as oxidative metabolism of piperazine-THF alcohol lysine region fragment by MetID analysis; assay type: ADME
[27] = Drug metabolism in rat assessed as amide hydrolysis mediated metabolite formation by MetID analysis; assay type: ADME
mouse BCRP = assay: Efflux ratio of apparent permeability across basolateral to apical over apical to basolateral side in MDCK-II cells transfected with mouse BCRP incubated for 3 hrs by LC-MS/MS analysis; details: dog

CC(C)(O)[C@H]1C[C@H]1C(=O)Nc1cc2cc(C3CCN([C@]4(C)COC[C@@H]4O)CC3)c(Cl)cc2cn1
clearance [1]: 22 mL/min/kg
efflux ratio at 3 h (rat Mdrl1 P-gp): 9
CL [2]: 276 mL/min/kg
IC50 [3]: < 0.08 nM
MRT [4]: 3.1 h
Papp A→B at 3 h (rat Mdr1a P-gp): 33 ×10⁻⁶ cm/s

Cn1cc([C@H]2C[C@@H]2C(=O)Nc2cc3cc(C4CCN([C@]5(C)COC[C@@H]5O)CC4)c(Cl)cc3cn2)cn1
clearance [1]: 17 mL/min/kg
IC50 [5]: 9.5 µM
fIC50 [6]: 0.28 nM
efflux ratio at 3 h (rat Mdrl1 P-gp): 12
CL [2]: 302 mL/min/kg
IC50 [3]: 0.5 nM
MRT [4]: 4.4 h
Papp A→B at 3 h (rat Mdr1a P-gp): 29 ×10⁻⁶ cm/s

COC(C)(C)[C@@H]1C[C@H]1C(=O)Nc1cc2cc(C3CCN([C@]4(C)COC[C@@H]4O)CC3)c(Cl)cc2cn1
clearance [1]: 41 mL/min/kg
Kp uu [7]: 0.3
CL [2]: 840 mL/min/kg
MRT [4]: 2.1 h

C[C@@]1(N2CCC(c3cc4cc(NC(=O)C5CC5)ncc4cc3Cl)CC2)COC[C@@H]1O
clearance [1]: 12 mL/min/kg
fIC50 [6]: 4.5 nM
IC50 [8]: 43 nM
CL [2]: 684 mL/min/kg
IC50 [3]: < 0.08 nM
MRT [4]: 3.2 h

Cn1cc(C(=O)Nc2cc3cc(C4CCN([C@]5(C)COC[C@@H]5O)CC4)c(Cl)cc3cn2)cn1
fIC50 [6]: 112 nM
IC50 [3]: 0.8 nM

Cc1cc2cnc(NC(=O)C3CC34CC4)cc2cc1C1CCN([C@]2(C)COC[C@@H]2O)CC1 (some centres not stated)
clearance [1]: 31 mL/min/kg
IC50 [5]: 4.8 µM
fIC50 [6]: 12 nM
clearance [9]: 10 mL/min/kg
CL [10]: 76 mL/min/kg
CL [2]: 241 mL/min/kg
MRT [11]: 9.8 h
IC50 [3]: < 0.08 nM
MRT [4]: 3.2 h
logD [12]: 3.6

C[C@@]1(N2CCC(c3cc4cc(N)ncc4cc3Cl)CC2)COC[C@@H]1O
Activity [13]: Non-Toxic
Activity [14]: Non-Toxic
Activity [15]: Non-Toxic
Activity [16]: Non-Toxic
Activity [17]: Non-Toxic
Activity [18]: Non-Toxic

Cn1ccc([C@H]2C[C@@H]2C(=O)Nc2cc3cc(C4CCN([C@]5(C)COC[C@@H]5O)CC4)c(Cl)cc3cn2)n1
clearance [1]: 21 mL/min/kg
fIC50 [6]: 1.2 nM
Kp uu [7]: 0.3
CL [2]: 731 mL/min/kg
MRT [4]: 2.6 h

C[C@@]1(N2CCN(c3cc4cc(N)ncc4cc3Cl)CC2)COC[C@@H]1O
Activity [13]: Non-Toxic
Activity [14]: Non-Toxic
Activity [15]: Non-Toxic
Activity [16]: Non-Toxic
Activity [17]: Non-Toxic
Activity [18]: Non-Toxic

C[C@@]1(N2CCC(c3cc4cc(NC(=O)[C@H]5CC56CCOCC6)ncc4cc3Cl)CC2)COC[C@@H]1O
CL [19]: 875 mL/min/kg
clearance [9]: 18 mL/min/kg
CL [10]: 422 mL/min/kg
clearance [20]: 35 mL/min/kg
bioavailability [21]: 67%
MRT [22]: 2.7 h
MRT [11]: 12 h

C[C@@]1(N2CCC(c3cc4cc(NC(=O)[C@H]5C[C@@H]5c5ccccn5)ncc4cc3Cl)CC2)COC[C@@H]1O
CL [19]: 341 mL/min/kg
Drug metabolism [23]: Metabolite_Detected
fIC50 [6]: 0.2 nM
bioavailability [24]: 46%
clearance [20]: 13 mL/min/kg
Drug metabolism [25]: Metabolite_Detected
MRT [22]: 5.6 h
Drug metabolism [26]: Metabolite_Detected
Drug metabolism [27]: Metabolite_Notdetected

CC1(N2CCC(c3cc4cc(NC(=O)C5CC5)ncc4cc3Cl)CC2)COC1
efflux ratio at 3 h (mouse BCRP): 1.1
clearance [1]: 10 mL/min/kg
fIC50 [6]: 168 nM
efflux ratio at 3 h (rat Mdrl1 P-gp): 0.9
CL [2]: 429 mL/min/kg
IC50 [3]: 3 nM
MRT [4]: 3.3 h
Papp A→B at 3 h (rat Mdr1a P-gp): 34 ×10⁻⁶ cm/s
